Legend:
[1] = oral delivery; DTPA highly polar at neutral pH; cited from earlier work
[2] = Pu decorporation in rats contaminated i.v. with plutonium citrate, chronic intrarectal treatment, liver and femur alpha activity; conditions: cumulative CaNa3DTPA doses 44.3 to 307.6 μmol/kg, rectal, treatment from D+4

| SMILES | absorbed when delivered orally [1] [%] | efficacy of decorporation in liver or bone Pu deposits as a function of cumulative dose [2] |
| --- | --- | --- |
| O=C(O)CN(CCN(CC(=O)O)CC(=O)O)CCN(CC(=O)O)CC(=O)O [DTPA, diethylene triaminopentaacetic acid] | < 10 |  |
| O=C([O-])CN(CCN(CC(=O)[O-])CC(=O)[O-])CCN(CC(=O)[O-])CC(=O)[O-].[Ca+2].[Na+].[Na+].[Na+] [CaNa3DTPA, pentetate calcium trisodium] |  | proportional to the administered dose cumulative |
